Assay results from patent US20040121304A1, “Method for screening for progesterone receptor isoform-specific ligands and for tissue-selective progesterone receptor ligands” (priority 2004, published 2004).

Columns and labels:
[1] = biological target: T1, hPR-A (progesterone receptor isoform A) (Homo sapiens, UniProt P06401); assay: Transactivation assay, SK-N-MC cells stably transfected with hPR-A and MTV-LUC reporter; assay type: cell-based; conditions: for Emax / antagonism efficacy (PR-A): SK-N-MC hPR-A/MTV-LUC cells, 24 h incubation; for Emax: LUC activity relative to R5020 10^-7 mol/l = 100%, 1% ethanol = 0%, read-out: Agonism efficacy (PR-A); for antagonism efficacy (PR-A): inhibition of LUC induction by 10^-10 mol/l R5020
T1 construct: expressed in transfected cells; host or cells: SK-N-MC (human neuroblastoma) cells, stably transfected with phPR-2 (PR-A plasmid) plus pRSV-neo and pMTV-LUC
T1 sequence (P06401 1-769 isoform P06401-2): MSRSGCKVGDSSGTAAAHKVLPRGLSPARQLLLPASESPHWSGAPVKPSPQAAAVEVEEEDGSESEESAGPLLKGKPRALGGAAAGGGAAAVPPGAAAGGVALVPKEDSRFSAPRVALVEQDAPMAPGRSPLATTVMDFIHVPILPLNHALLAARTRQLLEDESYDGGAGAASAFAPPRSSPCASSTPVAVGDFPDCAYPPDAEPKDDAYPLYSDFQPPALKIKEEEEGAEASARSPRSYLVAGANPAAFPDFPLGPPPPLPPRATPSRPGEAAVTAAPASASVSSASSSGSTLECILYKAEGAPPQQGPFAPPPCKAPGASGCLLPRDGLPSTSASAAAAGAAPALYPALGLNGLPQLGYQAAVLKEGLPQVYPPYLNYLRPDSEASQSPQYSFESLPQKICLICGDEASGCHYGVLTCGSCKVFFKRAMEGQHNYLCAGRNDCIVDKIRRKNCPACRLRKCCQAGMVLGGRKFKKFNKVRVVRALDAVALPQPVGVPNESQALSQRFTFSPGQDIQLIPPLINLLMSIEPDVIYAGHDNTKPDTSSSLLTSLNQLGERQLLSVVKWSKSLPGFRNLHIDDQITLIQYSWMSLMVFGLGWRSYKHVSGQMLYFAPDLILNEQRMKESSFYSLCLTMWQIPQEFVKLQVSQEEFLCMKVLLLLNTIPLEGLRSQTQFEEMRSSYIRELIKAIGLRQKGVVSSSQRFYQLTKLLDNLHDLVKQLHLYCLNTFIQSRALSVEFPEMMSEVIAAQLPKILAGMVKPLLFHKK
Method: (§1) The method for screening for isoform-specific PR ligands according to the present invention is carried out with first and second SK-N-MC cells stably transfected with a plasmid expressing the hPR-A (first cells) or the hPR-B (second cells) and the LUC reporter gene linked to the hormonally responsive MTV promoter. A detailed description of how the cell lines according to the invention and used in this Example may be obtained is given in Example 5.
(§2) The cells are cultured in Minimum Essential Medium with Earl's Salts (S-MEM, without L-glutamine; Gibco BRL, no. 21090-022), supplemented with 10% fetal calf serum (FCS), penicillin 100U/streptomycin 100 μg/ml (Biochrom, no. A2213), L-glutamine 4 mmol/l (Gibco BRL, no. 25030-024), sodium pyruvate 1 mmol/l (Biochrom, no. L0473) and 1× non-essential amino acids (Biochrom, no. K0293) at a temperature of 37° C. and in an atmosphere of 5% carbon dioxide.
(§3) For the transactivation assay, the cells are seeded onto 96-well dishes (2×10^4 cells/dish) and cultured in a medium as described above, with the exception that the FCS is replaced by a 3% charcoal stripped FCS. 48 hours later, cells are contacted with prediluted test compounds. For determination of agonistic activity, cells are cultured in the presence of increasing concentrations (10^−6 to 10^−11 mol/l) of test compounds. As a positive control for reporter gene induction cells are treated with 10^−6 to 10^−11 mol/l R5020 (promegestone). As a negative control for reporter gene induction, cells are cultured in 1% ethanol. For determination of antagonistic activity, cells are treated with 10^−10 mol/l R5020 and additionally with increasing concentrations (10^−6 to 10^−11 mol/l) of test compounds. As a positive control for inhibition of reporter gene transcription, cells are cultured in increasing concentrations (10^−7 to 10^−12 mol/l) of the antiprogestin mifepristone. As a negative control for inhibition of reporter gene transcription, cells are cultured in 1% ethanol.
(§4) After incubation with test compounds for 24 hours, the medium is removed and cells are lysed with 20 μl of lysis buffer (Luciferase Assay System E 153A; Promega) and under agitation of the plate for 10 min. After addition of 30 μl of luciferase reagent (Luciferase Assay System E 151A+152A; Promega) within 30 seconds per plate, the activity of the luciferase reporter gene product is determined in the cell lysates by means of a Microlite ML 3000 microtiter plate luminometer (Dynatech) in cycle mode.
(§5) Evaluation of the response gives the efficacy [%] for both agonism and antagonism, and evaluation of the EC50 (for agonism) and IC50 (for antagonism) values gives the potency [nM]. Calculation of these values is conducted as follows:
(§6) Calculation of Agonistic Activity:
(§7) The LUC activity [%] for the measured data points is calculated as follows: [formula]
(§8) and CO=0% stimulation (ethanol, 1%).
(§9) Thus, the efficacy [%] is determined according to: [formula]
(§10) The potency [nM], i.e. the EC50, is determined graphically.
(§11) Calculation of Antagonistic Activity:
(§12) wherein CI=0% inhibition (R5020, 10^−10 mol/l) (corresponds to 100% stimulation)
(§13) and CO=100% inhibition (EtOH, 1%) (corresponds to 0% stimulation)
(§14) The potency [nM], i.e. the IC50, is determined graphically.

[2] = biological target: T2, hPR-B (progesterone receptor isoform B) (Homo sapiens, UniProt P06401); assay: Transactivation assay, SK-N-MC cells stably transfected with hPR-B and MTV-LUC reporter; assay type: cell-based; conditions: for Emax / antagonism efficacy (PR-B): SK-N-MC hPR-B/MTV-LUC cells, 24 h incubation; for Emax: LUC activity relative to R5020 10^-7 mol/l = 100%, 1% ethanol = 0%, read-out: Agonism efficacy (PR-B); for antagonism efficacy (PR-B): inhibition of LUC induction by 10^-10 mol/l R5020; for Difference of agonism efficacies (PR-B - PR-A): indicating PR-B selectivity
T2 construct: expressed in transfected cells; host or cells: SK-N-MC (human neuroblastoma) cells, stably transfected with pRSVhPR-neo (built from pRC/RSV and hPR-1) and pMTV-LUC
T2 sequence (P06401 1-933): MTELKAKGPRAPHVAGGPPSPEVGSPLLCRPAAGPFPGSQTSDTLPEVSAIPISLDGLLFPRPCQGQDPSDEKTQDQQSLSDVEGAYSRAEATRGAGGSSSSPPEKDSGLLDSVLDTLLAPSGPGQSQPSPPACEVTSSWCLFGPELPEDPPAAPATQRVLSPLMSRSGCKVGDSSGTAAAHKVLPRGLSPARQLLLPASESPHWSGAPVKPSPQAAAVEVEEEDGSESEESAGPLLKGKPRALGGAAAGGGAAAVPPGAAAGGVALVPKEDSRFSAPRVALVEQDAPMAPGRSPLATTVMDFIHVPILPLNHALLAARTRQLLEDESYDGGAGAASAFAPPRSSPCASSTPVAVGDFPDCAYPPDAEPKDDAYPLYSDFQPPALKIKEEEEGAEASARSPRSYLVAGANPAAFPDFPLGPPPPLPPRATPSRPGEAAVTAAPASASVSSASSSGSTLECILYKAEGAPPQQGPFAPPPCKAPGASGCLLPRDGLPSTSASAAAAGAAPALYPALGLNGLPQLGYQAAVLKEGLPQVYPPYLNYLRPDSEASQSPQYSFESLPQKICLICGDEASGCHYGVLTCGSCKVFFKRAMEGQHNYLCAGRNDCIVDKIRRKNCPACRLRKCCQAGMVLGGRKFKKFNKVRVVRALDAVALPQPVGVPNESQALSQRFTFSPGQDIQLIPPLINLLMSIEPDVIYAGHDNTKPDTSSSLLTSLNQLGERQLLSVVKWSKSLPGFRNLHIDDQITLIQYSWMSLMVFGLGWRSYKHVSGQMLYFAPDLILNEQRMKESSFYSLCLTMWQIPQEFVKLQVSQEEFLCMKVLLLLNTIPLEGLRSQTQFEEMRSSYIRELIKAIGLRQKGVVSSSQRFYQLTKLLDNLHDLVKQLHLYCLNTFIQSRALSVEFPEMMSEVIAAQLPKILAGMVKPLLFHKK
Method: as §1, §2, §3, §4, §5, §6, §7, §8, §9, §10, §11, §12, §13, §14

Structure (SMILES)	Emax [1]	antagonism efficacy (PR-A) [1]	Emax [2]	antagonism efficacy (PR-B) [2]	Difference of agonism efficacies (PR-B - PR-A) [2]	Difference of agonism efficacies (PR-A - PR-B) ([1]; indicating PR-A selectivity)	Difference of antagonism efficacies (PR-A - PR-B) ([1]; indicating PR-A selectivity)
O=C1OCc2cc(NC(=O)C(O)(CC3(c4cccc(Br)c4)CC3)C(F)(F)F)ccc21 (stereo not drawn) [1-(3-bromophenyl)-N-(1,3-dihydro-1-oxo-5-isobenzofuranyl)-α-hydroxy-α-(trifluoromethyl)-cyclopropanepropanamide]	81%	none	106%	none	25%	–	–
CC(CC(O)(CNc1ccc2c(c1)COC2=O)C(F)(F)F)c1ccccc1 (stereo not shown) [5-{[2-hydroxy-4-phenyl-2-(trifluoromethyl)pentyl]amino}-1(3H)-isobenzofiuranone]	39.9%	none	56.8%	none	17%	–	–
C#C[C@]1(O)C=CC2C3CCC4=CC(=O)CC[C@@]45CC=C[C@@H](C[C@@]21C)C35 (stereo partly drawn) [9,11-dihydro-17-hydroxy-(11α,17α)-6′H-benzo[10,9,11]-19-norpregna-4,9(11), 15-trien-20-yn-3-one]	131%	none	114%	none	–	17%	–
C#C[C@]1(O)C=CC2C3CCC4=CC(=O)CC[C@@]45CCC=C(C[C@@]21CC)C35 (stereo partly drawn) [13-ethyl-5α,9-dihydro-17-hydroxy-(17α)-6′H-benzo[10,9,11]-18,19-dinorpregna-4,9(11),15-trien-20-yn-3-one]	85%	none	108%	none	23%	–	–
C=C[C@]1(O)CCC2C3CCC4=CC(=O)CC[C@@]45CC=C[C@@H](C[C@@]21CC)C35 (stereo partly drawn) [13-ethyl-9,11-dihydro-17-hydroxy-(11α,17α)-6′H-benzo[10,9,11]-18,19-dinorpregna-4,9(11),20-trien-3-one]	132%	none	108%	none	–	24%	–
C#C[C@]1(O)CCC2C3CCC4=CC(=O)CC[C@@]45CC=C[C@@H](C[C@@]21CC)C35 (stereo partly drawn) [13-ethyl-9,11-dihydro-17-hydroxy-(11α,17α)-6′H-benzo[10,9,11]-18,19-dinorpregna-4,9(11)-dien-20-yn-3-one]	129%	none	108%	none	–	21%	–
CC(=O)O[C@]1(C(C)=O)CCC2C3C=C(Cl)C4=CC(=O)CC[C@@]45CC[C@@H](C[C@@]21C)C35 (stereo partly drawn) [17-(acetyloxy)-6-chloro-9,11-dihydro-(11α)-cyclopenta[10,9,11]-19-norpregna-4,6,9(11)-triene-3,20-dione]	29%	45%	50%	30%	21%	–	15%
CC(=O)O[C@]1(C(C)=O)CCC2C3C[C@H](C)C4=CC(=O)CC[C@@]45CC=C[C@@H](C[C@@]21C)C35 (stereo partly drawn) [17-(acetyloxy)-9,11-dihydro-6-methyl-(6α,11α)-6H′benzo[10,9,11]-19-norpregna-4,9(11)-diene-3,20-dione]	50%	none	90%	none	40%	–	–
CC(=O)O[C@]1(C(C)=O)CC[C@H]2[C@@H]3C=C(C)C4=CC(=O)CC[C@]4(C)[C@H]3CC[C@@]21C [17-acetoxy-6-methyl-4,6-pregnadiene-3,20-dione]	35%	none	81%	none	46%	–	–
